Values joined by “and” are separate entries in the source; they are usually repeats but may differ in a detail not shown here. Equal values may be shown once. Inconclusive results and toxic doses are left out.
Test system: L1210 leukemia ip in BDF1 mice, survival T/C
Experiment: NCI In Vivo Anticancer Drug Screen. Data for tumor model L1210 Leukemia (intraperitoneal) in B6D2F1 (BDF1) mice
Conditions: endpoint: mean survival time, higher = longer survival
In short: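 Transplanted-tumor mice were given test agent; controls received vehicle only. Survival readings from the two groups were divided (treated over control).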

[N-]=[N+]=CC(=O)NCC(=O)NN
T/C (dose: 50.0 mg/kg/injection, schedule: Q01DX Z (sc), vehicle: steriod suspending solution): 101 % of control
T/C (dose: 50.0 mg/kg/injection, schedule: Q02DX Z (ip), vehicle: saline): 102 % of control
T/C (dose: 50.0 mg/kg/injection, schedule: Q03DX Z (ip), vehicle: saline): 101 % of control
T/C (dose: 100.0 mg/kg/injection, schedule: Q01DX001 (ip), vehicle: saline): 108 % of control
T/C (dose: 100.0 mg/kg/injection, schedule: Q01DX005 (ip), vehicle: other): 114 % of control
T/C (dose: 100.0 mg/kg/injection, schedule: Q01DX009 (ip), vehicle: other): 115 % of control
T/C (dose: 100.0 mg/kg/injection, schedule: Q01DX009 (ip), vehicle: saline): 119 % of control
T/C (dose: 100.0 mg/kg/injection, schedule: Q01DX Z (sc), vehicle: steriod suspending solution): 101 % of control
T/C (dose: 100.0 mg/kg/injection, schedule: Q02DX Z (ip), vehicle: saline): 108 % of control
T/C (dose: 100.0 mg/kg/injection, schedule: Q03DX Z (ip), vehicle: saline): 108 % of control
T/C (dose: 100.0 mg/kg/injection, schedule: Q## X008 (ip), vehicle: water): 98 % of control
T/C (dose: 125.0 mg/kg/injection, schedule: Q01DX006 (iv), vehicle: saline): 98 % of control
T/C (dose: 125.0 mg/kg/injection, schedule: Q01DX009 (ip), vehicle: other): 118 % of control
T/C (dose: 125.0 mg/kg/injection, schedule: Q01DX009 (sc), vehicle: other): 100 % of control
T/C (dose: 125.0 mg/kg/injection, schedule: Q01DX017 (ip), vehicle: saline): 121 % of control
T/C (dose: 125.0 mg/kg/injection, schedule: Q01DX Z (ip), vehicle: other): 116 % of control
T/C (dose: 200.0 mg/kg/injection, schedule: Q01DX001 (ip), vehicle: saline): 110 % of control
T/C (dose: 200.0 mg/kg/injection, schedule: Q01DX Z (ip), vehicle: water): 124 % of control
T/C (dose: 200.0 mg/kg/injection, schedule: Q01DX Z (sc), vehicle: steriod suspending solution): 98 % of control
T/C (dose: 200.0 mg/kg/injection, schedule: Q03DX Z (ip), vehicle: saline): 154 % of control
T/C (dose: 200.0 mg/kg/injection, schedule: Q## X008 (ip), vehicle: water): 98 % of control
T/C (dose: 225.0 mg/kg/injection, schedule: Q01DX Z (ip), vehicle: saline): 124 % of control
T/C (dose: 225.0 mg/kg/injection, schedule: Q01DX Z (ip), vehicle: water): 121 % of control
T/C (dose: 250.0 mg/kg/injection, schedule: Q01DX006 (iv), vehicle: saline): 106 % of control
T/C (dose: 250.0 mg/kg/injection, schedule: Q01DX009 (ip), vehicle: other): 156 % of control
T/C (dose: 250.0 mg/kg/injection, schedule: Q01DX009 (sc), vehicle: other): 108 % of control
T/C (dose: 250.0 mg/kg/injection, schedule: Q01DX017 (ip), vehicle: saline): 124 % of control
T/C (dose: 250.0 mg/kg/injection, schedule: Q01DX Z (ip), vehicle: other): 123 % of control
T/C (dose: 250.0 mg/kg/injection, schedule: Q02DX005 (ip), vehicle: saline): 121 % of control
T/C (dose: 250.0 mg/kg/injection, schedule: Q04DX003 (ip), vehicle: saline): 110 % of control
T/C (dose: 250.0 mg/kg/injection, schedule: Q08DX002 (ip), vehicle: other): 112 % of control
T/C (dose: 250.0 mg/kg/injection, schedule: Q## X005 (ip), vehicle: saline): 111 % of control
T/C (dose: 300.0 mg/kg/injection, schedule: Q01DX009 (sc), vehicle: other): 118 % of control
T/C (dose: 375.0 mg/kg/injection, schedule: Q01DX Z (ip), vehicle: other): 160 % of control
T/C (dose: 400.0 mg/kg/injection, schedule: Q01DX001 (ip), vehicle: saline): 106 % of control
T/C (dose: 400.0 mg/kg/injection, schedule: Q01DX005 (ip), vehicle: other): 150 % of control
T/C (dose: 400.0 mg/kg/injection, schedule: Q01DX009 (ip), vehicle: saline): 156 % of control
T/C (dose: 400.0 mg/kg/injection, schedule: Q01DX Z (im), vehicle: other): 112 % of control
T/C (dose: 400.0 mg/kg/injection, schedule: Q01DX Z (ip), vehicle: other): 157 % of control
T/C (dose: 400.0 mg/kg/injection, schedule: Q01DX Z (oral), vehicle: other): 102 % of control
T/C (dose: 400.0 mg/kg/injection, schedule: Q01DX Z (oral), vehicle: saline): 116 % of control
T/C (dose: 400.0 mg/kg/injection, schedule: Q## X008 (ip), vehicle: water): 103 % of control
T/C (dose: 500.0 mg/kg/injection, schedule: Q01DX001 (ip), vehicle: saline): 111 % of control and 117 % of control
T/C (dose: 500.0 mg/kg/injection, schedule: Q01DX006 (iv), vehicle: saline): 110 % of control
T/C (dose: 500.0 mg/kg/injection, schedule: Q01DX009 (sc), vehicle: other): 118 % of control
T/C (dose: 500.0 mg/kg/injection, schedule: Q01DX Z (ip), vehicle: other): 118 % of control and 124 % of control
T/C (dose: 500.0 mg/kg/injection, schedule: Q01DX Z (ip), vehicle: water): 90 % of control
T/C (dose: 500.0 mg/kg/injection, schedule: Q## X005 (ip), vehicle: saline): 114 % of control
T/C (dose: 500.0 mg/kg/injection, schedule: Q## X024 (ip), vehicle: water): 112 % of control
T/C (dose: 600.0 mg/kg/injection, schedule: Q01DX009 (ip), vehicle: saline): 117 % of control
T/C (dose: 600.0 mg/kg/injection, schedule: Q01DX Z (im), vehicle: other): 120 % of control
T/C (dose: 600.0 mg/kg/injection, schedule: Q01DX Z (ip), vehicle: water): 150 % of control
T/C (dose: 600.0 mg/kg/injection, schedule: Q01DX Z (sc), vehicle: other): 115 % of control
T/C (dose: 600.0 mg/kg/injection, schedule: Q## X008 (ip), vehicle: water): 109 % of control
T/C (dose: 750.0 mg/kg/injection, schedule: Q01DX009 (sc), vehicle: other): 118 % of control
T/C (dose: 750.0 mg/kg/injection, schedule: Q01DX Z (ip), vehicle: other): 123 % of control
T/C (dose: 800.0 mg/kg/injection, schedule: Q01DX Z (im), vehicle: other): 101 % of control
T/C (dose: 800.0 mg/kg/injection, schedule: Q01DX Z (ip), vehicle: other): 124 % of control
T/C (dose: 800.0 mg/kg/injection, schedule: Q01DX Z (oral), vehicle: other): 117 % of control
T/C (dose: 800.0 mg/kg/injection, schedule: Q01DX Z (oral), vehicle: saline): 122 % of control
T/C (dose: 800.0 mg/kg/injection, schedule: Q01DX Z (sc), vehicle: other): 91 % of control
T/C (dose: 800.0 mg/kg/injection, schedule: Q02DX005 (ip), vehicle: saline): 183 % of control
T/C (dose: 800.0 mg/kg/injection, schedule: Q02DX Z (ip), vehicle: other): 182 % of control
T/C (dose: 800.0 mg/kg/injection, schedule: Q03DX Z (ip), vehicle: other): 150 % of control
T/C (dose: 1000.0 mg/kg/injection, schedule: Q01DX001 (ip), vehicle: saline): 115 % of control
T/C (dose: 1000.0 mg/kg/injection, schedule: Q01DX001 (sc), vehicle: other): 108 % of control
T/C (dose: 1000.0 mg/kg/injection, schedule: Q01DX006 (iv), vehicle: saline): 109 % of control
T/C (dose: 1000.0 mg/kg/injection, schedule: Q01DX Z (ip), vehicle: other): 100 % of control
T/C (dose: 1000.0 mg/kg/injection, schedule: Q02DX009 (ip), vehicle: saline): 119 % of control
T/C (dose: 1000.0 mg/kg/injection, schedule: Q04DX003 (ip), vehicle: other): 162 % of control
T/C (dose: 1000.0 mg/kg/injection, schedule: Q04DX003 (ip), vehicle: saline): 156 % of control
T/C (dose: 1000.0 mg/kg/injection, schedule: Q## X005 (ip), vehicle: saline): 158 % of control
T/C (dose: 1200.0 mg/kg/injection, schedule: Q02DX Z (ip), vehicle: other): 98 % of control
T/C (dose: 1200.0 mg/kg/injection, schedule: Q03DX Z (ip), vehicle: other): 156 % of control
T/C (dose: 1250.0 mg/kg/injection, schedule: Q03HX016 (ip), vehicle: saline): 105 % of control
T/C (dose: 1500.0 mg/kg/injection, schedule: Q01DX001 (ip), vehicle: other): 150 % of control
T/C (dose: 1500.0 mg/kg/injection, schedule: Q01DX001 (ip), vehicle: saline): 150 % of control
T/C (dose: 1500.0 mg/kg/injection, schedule: Q01DX001 (sc), vehicle: other): 107 % of control
T/C (dose: 1500.0 mg/kg/injection, schedule: Q03HX016 (ip), vehicle: saline): 96 % of control
T/C (dose: 1500.0 mg/kg/injection, schedule: Q04DX003 (ip), vehicle: saline): 180 % of control
T/C (dose: 1500.0 mg/kg/injection, schedule: Q08DX002 (ip), vehicle: saline): 164 % of control
T/C (dose: 1500.0 mg/kg/injection, schedule: Q## X024 (ip), vehicle: water): 154 % of control
T/C (dose: 1600.0 mg/kg/injection, schedule: Q01DX Z (ip), vehicle: other): 150 % of control
T/C (dose: 1750.0 mg/kg/injection, schedule: Q03HX016 (ip), vehicle: saline): 102 % of control
T/C (dose: 2000.0 mg/kg/injection, schedule: Q01DX001 (ip), vehicle: other): 168 % of control
T/C (dose: 2000.0 mg/kg/injection, schedule: Q01DX001 (sc), vehicle: other): 118 % of control
T/C (dose: 2000.0 mg/kg/injection, schedule: Q03HX016 (ip), vehicle: saline): 111 % of control
T/C (dose: 2000.0 mg/kg/injection, schedule: Q## X005 (ip), vehicle: saline): 104 % of control
